Measured values: US10508104B2, “6-hydroxy-5-(phenyl/heteroarylsulfonyl)pyrimidin-4(1H)-one as APJ agonists” (Bristol-Myers Squibb Company, priority 2016, dated 2019)

molecular target: human APJ receptor (Homo sapiens (Human), UniProt P35414); assay: Intracellular cAMP accumulation assay (APJ hcAMP, HTRF); assay type: cell-based; details: HEK293 cells stably expressing human APJ receptor; inhibition of forskolin-mediated cAMP production; read-out: Human APJ cAMP EC50 Potency range
Summary of the method: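 HEK293 cells stably expressing human APJ, 5,000 per well, incubated 30 min at rt with compound, […] and 2 μM forskolin. cAMP measured by HTRF against a cAMP standard curve as inhibition of forskolin-driven production. EC50 from variable-slope sigmoidal fit.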

Chain of human APJ receptor (P35414 whole entry): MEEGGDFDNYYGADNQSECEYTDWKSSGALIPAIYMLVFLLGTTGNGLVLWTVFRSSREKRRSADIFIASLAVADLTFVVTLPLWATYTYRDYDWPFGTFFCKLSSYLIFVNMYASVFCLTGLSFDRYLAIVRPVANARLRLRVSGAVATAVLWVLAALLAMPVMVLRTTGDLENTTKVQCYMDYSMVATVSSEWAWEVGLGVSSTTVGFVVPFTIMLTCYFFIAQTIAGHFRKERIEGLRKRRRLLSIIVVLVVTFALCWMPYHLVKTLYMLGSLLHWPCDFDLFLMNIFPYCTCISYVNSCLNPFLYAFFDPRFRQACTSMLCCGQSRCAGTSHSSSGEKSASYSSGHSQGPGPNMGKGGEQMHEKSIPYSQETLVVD

EC50, 0.01 to 10 nM:
COC[C@@H](c1cc(F)cc(F)c1)n1c(COC(C)C)nc(=O)c(S(=O)(=O)c2ccc(-c3cccnc3C)cc2)c1O [Example 379, 1-[(1R)-1-(3,5-difluorophenyl)-2-methoxyethyl]-6-hydroxy-5-[4-(2-methylpyridin-3-yl)benzenesulfonyl]-2-[(propan-2-yloxy)methyl]-1,4-dihydropyrimidin-4-one]
COC[C@@H](c1cc(F)cc(F)c1)n1c(COC(C)C)nc(=O)c(S(=O)(=O)c2ccc(-c3ccc(F)nc3C)cc2)c1O [Example 380, 1-[(1R)-1-(3,5-difluorophenyl)-2-methoxyethyl]-5-[4-(6-fluoro-2-methylpyridin-3-yl)benzenesulfonyl]-6-hydroxy-2-[(propan-2-yloxy)methyl]-1,4-dihydropyrimidin-4-one]
CC[C@@H](c1cccc(C#N)c1)n1c(COC(C)C)nc(=O)c(S(=O)(=O)c2ccc(-c3ccnc(F)c3C)cc2)c1O [Example 381, 3-[(1S)-1-{5-[4-(2-fluoro-3-methylpyridin-4-yl)benzenesulfonyl]-6-hydroxy-4-oxo-2-[(propan-2-yloxy)methyl]-1,4-dihydropyrimidin-1-yl}propyl]benzonitrile]
CC[C@@H](c1cccc(C#N)c1)n1c(COC(C)C)nc(=O)c(S(=O)(=O)c2ccc(-c3ccc(F)nc3C)cc2)c1O [Example 382, 3-[(1S)-1-{5-[4-(6-fluoro-2-methylpyridin-3-yl)benzenesulfonyl]-6-hydroxy-4-oxo-2-[(propan-2-yloxy)methyl]-1,4-dihydropyrimidin-1-yl}propyl]benzonitrile]
CC[C@@H](c1cccc(C#N)c1)n1c(COC(C)C)nc(=O)c(S(=O)(=O)c2ccc(-c3ccncc3C)cc2)c1O [Example 383, 3-[(1S)-1-{6-hydroxy-5-[4-(3-methylpyridin-4-yl)benzenesulfonyl]-4-oxo-2-[(propan-2-yloxy)methyl]-1,4-dihydropyrimidin-1-yl}propyl]benzonitrile]
CC[C@@H](c1cccc(C#N)c1)n1c(COC(C)C)nc(=O)c(S(=O)(=O)c2ccc(-c3cccnc3C)cc2)c1O [Example 384, 3-[(1S)-1-{6-hydroxy-5-[4-(2-methylpyridin-3-yl)benzenesulfonyl]-4-oxo-2-[(propan-2-yloxy)methyl]-1,4-dihydropyrimidin-1-yl}propyl]benzonitrile]
CCOCc1nc(=O)c(S(=O)(=O)c2ccc(-c3ccc(F)nc3C)cc2)c(O)n1[C@@H](COC)c1cc(F)cc(F)c1 [Example 385, 1-[(1R)-1-(3,5-difluorophenyl)-2-methoxyethyl]-2-(ethoxymethyl)-5-[4-(6-fluoro-2-methylpyridin-3-yl)benzenesulfonyl]-6-hydroxy-1,4-dihydropyrimidin-4-one]
CCOCc1nc(=O)c(S(=O)(=O)c2ccc(-c3cccnc3C)cc2)c(O)n1[C@@H](COC)c1cc(F)cc(F)c1 [Example 386, 1-[(1R)-1-(3,5-difluorophenyl)-2-methoxyethyl]-2-(ethoxymethyl)-6-hydroxy-5-[4-(2-methylpyridin-3-yl)benzenesulfonyl]-1,4-dihydropyrimidin-4-one]
CCOCc1nc(=O)c(S(=O)(=O)c2ccc(-c3ccncc3C)cc2)c(O)n1[C@@H](COC)c1cc(F)cc(F)c1 [Example 387, 1-[(1R)-1-(3,5-difluorophenyl)-2-methoxyethyl]-2-(ethoxymethyl)-6-hydroxy-5-[4-(3-methylpyridin-4-yl)benzenesulfonyl]-1,4-dihydropyrimidin-4-one]
CCOCc1nc(=O)c(S(=O)(=O)c2ccc(-c3ccnc(F)c3C)cc2)c(O)n1[C@@H](COC)c1cc(F)cc(F)c1 [Example 388, 1-[(1R)-1-(3,5-difluorophenyl)-2-methoxyethyl]-2-(ethoxymethyl)-5-[4-(2-fluoro-3-methylpyridin-4-yl)benzenesulfonyl]-6-hydroxy-1,4-dihydropyrimidin-4-one]
